Read-outs that look alike come from different tables or passages of the source.
How the values were obtained:
[1] = target: T1, Recombinant BTK^WT kinase (Homo sapiens, UniProt Q06187); assay: BTK WT binding affinity (LanthaScreen TR-FRET); conditions: Kinase Tracer 236, 5 h incubation
T1 construct: purchased Invitrogen
Method: BTK^WT binding affinity of each compound tested was determined using a time-resolved fluorescence resonance energy transfer (TR-FRET) methodology. 2.5 nM Recombinant BTK^WT kinase, varying concentrations of inhibitor, 2 nM LanthaScreen™ Eu anti-His Antibody and 15 nM Kinase Tracer 236 was incubated in 1× LanthaScreen™ Kinase Buffer A for 5 h. Recombinant BTK kinase and all LanthaScreen™ components were purchased from Invitrogen. Measurements were performed in a reaction volume of 30 μL using half-area 96-well assay plates. The TR-FRET signal was read on a plate reader with an excitation wavelength of 340 nm and detection wavelengths of 615 and 665 nm. Binding affinity was determined for each compound by measuring TR-FRET signal at various concentrations of compound and plotting the relative fluorescence units against the inhibitor concentration to estimate the IC50 from log[Inhibitor] vs response using the Variable Slope model in Graphpad prism from Graphpad software (San Diego, Calif.).

[2] = target: T2, Recombinant BTK^C481S kinase (Homo sapiens, UniProt Q06187, C481S); assay: BTK C481S binding affinity (LanthaScreen TR-FRET); conditions: Kinase Tracer 236, 5 h incubation
T2 construct: purchased SignalChem
Method: BTK^C481S binding affinity of each compound tested was determined using a time-resolved fluorescence resonance energy transfer (TR-FRET) methodology. 5 nM Recombinant BTK^WT kinase, varying concentrations of inhibitor, 2 nM LanthaScreen™ Eu anti-His Antibody and 30 nM Kinase Tracer 236 was incubated in 1× LanthaScreen™ Kinase Buffer A for 5 h. Recombinant BTK^C481S kinase was purchased from SignalChem and all LanthaScreen™ components were purchased from Invitrogen. Measurements were performed in a reaction volume of 30 μL using half-area 96-well assay plates. The TR-FRET signal was read on a plate reader with an excitation wavelength of 340 nm and detection wavelengths of 615 and 665 nm. Binding affinity was determined for each compound by measuring TR-FRET signal at various concentrations of compound and plotting the relative fluorescence units against the inhibitor concentration to estimate the IC50 from log[Inhibitor] vs response using the Variable Slope model in Graphpad prism from Graphpad software (San Diego, Calif.).

Recombinant EGFR = target: T3, Recombinant EGFR (Homo sapiens, UniProt P00533); assay: EGFR binding affinity (LanthaScreen TR-FRET); conditions: Kinase Tracer 199, 5 h incubation
T3 construct: purchased Invitrogen
Method: EGFR binding affinity was determined using a time-resolved fluorescence resonance energy transfer (TR-FRET) methodology. […] Recombinant EGFR and all LanthaScreen™ components were purchased from Invitrogen. Measurements were performed in a reaction volume of 30 μL using half-area 96-well assay plates. […] Binding affinity was determined for each compound by measuring TR-FRET signal at various concentrations of compound and plotting the relative fluorescence units against the inhibitor concentration to estimate the IC50 from log[Inhibitor] vs response using the Variable Slope model in Graphpad prism from Graphpad software (San Diego, Calif.).

[3] = tested on: OCI-Ly10 human DLBCL cells; assay: OCI-Ly10 anti-proliferative activity (Resazurin); format: cell-based; conditions: OCI-Ly10 cells, 72 h compound treatment, Resazurin, read-out: Proliferation Assay OCI-Ly10-20% FBS
Method: Compounds were assayed for effects on the growth of OCI-Ly10 human DLBCL cells that are dependent on NFκB signalling. […] Cells were then plated at 7.5×10^3 cells per well in 96-well plates in varying concentrations of compound and incubated for 72 h at 37° C. An additional plate of cells to be used as the Day 0 read was seeded without compound addition, Resazurin was added to each well, incubated for 5 h and the fluorescence measured at 590 nm. After 72 h of compound treatment, Resazurin was added to each well of the compound treated plates, incubated for 5 h and the fluorescence measured at 590 nm. The IC50 was then calculated by subtracting the average Day 0 value from each well value from the treated plates, each treatment was then calculated as a percentage of the DMSO control and the percentages plotted against the inhibitor concentration to estimate the IC50 from log[Inhibitor] vs response using the Variable Slope model in Graphpad prism from Graphpad software (San Diego, Calif.).

T1 sequence (Q06187 whole entry): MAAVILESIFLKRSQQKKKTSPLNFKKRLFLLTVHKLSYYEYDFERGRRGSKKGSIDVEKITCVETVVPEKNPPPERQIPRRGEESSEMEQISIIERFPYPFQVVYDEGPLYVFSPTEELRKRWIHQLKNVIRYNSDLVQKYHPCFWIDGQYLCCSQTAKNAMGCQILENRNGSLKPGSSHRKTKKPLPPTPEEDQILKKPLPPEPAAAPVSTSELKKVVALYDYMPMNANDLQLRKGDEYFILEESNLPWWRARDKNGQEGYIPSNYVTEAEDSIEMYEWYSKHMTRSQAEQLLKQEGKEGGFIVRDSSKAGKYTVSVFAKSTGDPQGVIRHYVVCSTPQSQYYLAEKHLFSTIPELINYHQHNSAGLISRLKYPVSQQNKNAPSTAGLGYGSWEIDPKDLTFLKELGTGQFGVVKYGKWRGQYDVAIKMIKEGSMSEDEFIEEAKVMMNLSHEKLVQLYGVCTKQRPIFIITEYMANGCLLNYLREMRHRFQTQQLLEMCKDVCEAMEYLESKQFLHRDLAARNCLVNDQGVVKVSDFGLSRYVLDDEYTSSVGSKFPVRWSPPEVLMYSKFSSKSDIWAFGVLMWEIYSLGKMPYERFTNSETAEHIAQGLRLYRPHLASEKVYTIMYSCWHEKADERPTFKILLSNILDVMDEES
T3 sequence (P00533 25-1210): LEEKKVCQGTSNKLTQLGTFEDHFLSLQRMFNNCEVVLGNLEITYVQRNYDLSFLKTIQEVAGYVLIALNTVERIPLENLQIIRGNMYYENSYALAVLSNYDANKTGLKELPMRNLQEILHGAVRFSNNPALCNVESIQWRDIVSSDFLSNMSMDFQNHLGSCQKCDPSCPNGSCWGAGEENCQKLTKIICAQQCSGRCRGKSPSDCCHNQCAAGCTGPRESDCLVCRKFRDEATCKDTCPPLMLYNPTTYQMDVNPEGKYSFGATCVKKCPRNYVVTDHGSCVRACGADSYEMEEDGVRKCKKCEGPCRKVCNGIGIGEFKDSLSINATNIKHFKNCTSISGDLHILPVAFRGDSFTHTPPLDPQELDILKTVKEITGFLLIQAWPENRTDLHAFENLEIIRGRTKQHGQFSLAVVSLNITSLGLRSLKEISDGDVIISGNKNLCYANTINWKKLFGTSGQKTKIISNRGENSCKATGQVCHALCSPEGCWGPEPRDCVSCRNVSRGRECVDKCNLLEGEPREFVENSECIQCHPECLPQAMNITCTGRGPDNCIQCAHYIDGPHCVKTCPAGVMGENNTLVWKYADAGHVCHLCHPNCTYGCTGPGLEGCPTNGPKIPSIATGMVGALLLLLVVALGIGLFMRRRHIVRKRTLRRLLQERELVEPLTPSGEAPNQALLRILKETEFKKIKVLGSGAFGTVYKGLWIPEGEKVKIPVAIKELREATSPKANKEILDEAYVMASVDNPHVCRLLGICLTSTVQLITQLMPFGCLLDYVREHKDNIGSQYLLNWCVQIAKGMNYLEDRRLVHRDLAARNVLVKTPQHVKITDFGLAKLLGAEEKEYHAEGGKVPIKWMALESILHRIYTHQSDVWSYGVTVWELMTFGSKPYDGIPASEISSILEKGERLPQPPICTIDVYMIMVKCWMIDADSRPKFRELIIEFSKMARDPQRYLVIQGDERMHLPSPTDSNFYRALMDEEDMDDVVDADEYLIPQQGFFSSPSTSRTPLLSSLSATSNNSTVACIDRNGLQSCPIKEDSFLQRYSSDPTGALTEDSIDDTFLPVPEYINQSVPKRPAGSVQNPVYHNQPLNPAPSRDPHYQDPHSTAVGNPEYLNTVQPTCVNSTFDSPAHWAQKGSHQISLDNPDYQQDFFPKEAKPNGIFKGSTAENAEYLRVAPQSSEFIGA
T2 sequence (Q06187 whole entry C481S): as the sequence (Q06187 whole entry) above, with C481S counted along it

Compound	IC50 [1] [µM]	IC50 [2] [µM]	IC50 (Recombinant EGFR) [µM]	IC50 ([3]; Homo sapiens, OCI-Ly10, 72 h) [µM]	IC50 [3] [µM]
COc1ccccc1C(=O)NCc1ccc(-c2nn(-c3ccccc3C)c(N)c2C(N)=O)cc1 [Example 47, 5-amino-3-[4-[[(2-methoxybenzoyl)amino]methyl]phenyl]-1-(o-tolyl)pyrazole-4-carboxamide]	0.01 to 0.1	< 0.01	1 to 10	0.1 to 1	
COc1ccccc1C(=O)NCc1c(F)cc(-c2nn(C3CCCC3)c(N)c2C(N)=O)cc1F [Example 138, 5-amino-1-cyclopentyl-3-[3,5-difluoro-4-[[(2-methoxybenzoyl)amino]methyl]phenyl]pyrazole-4-carboxamide]	0.01 to 0.1	0.01 to 0.1	> 10	0.1 to 1	
COc1ccccc1C(=O)NCc1ccc(-c2nn(C3CNCC3(F)F)c(N)c2C(N)=O)cc1F (centres unmarked) [Example 160, 5-amino-1-(4,4-difluoropyrrolidin-3-yl)-3-[3-fluoro-4-[[(2-methoxybenzoyl)amino]methyl]phenyl]pyrazole-4-carboxamide]	0.01 to 0.1	< 0.01	1 to 10	0.1 to 1	
COc1ccc(F)cc1C(=O)NCc1ccc(-c2nn(C3CCOC3)c(N)c2C(N)=O)c(F)c1F (centres unmarked) [Example 182, 5-amino-3-[2,3-difluoro-4-[[(5-fluoro-2-methoxy-benzoyl)amino]methyl]phenyl]-1-tetrahydrofuran-3-yl-pyrazole-4-carboxamide]	0.01 to 0.1	< 0.01	1 to 10	0.1 to 1	
COc1ccccc1C(=O)NCc1ccc(-c2nn(CCC#N)c(N)c2C(N)=O)cc1 [Example 11, 5-Amino-1-(2-cyanoethyl)-3-[4-[[(2-methoxybenzoyl)amino]methyl]phenyl]pyrazole-4-carboxamide]	0.01 to 0.1	0.01 to 0.1	1 to 10	1 to 10	
COc1ccccc1C(=O)NCc1ccc(-c2nn(C3CCOCC3F)c(N)c2C(N)=O)cc1 (single isomer, unassigned) [Example 95, 5-amino-1-[3-fluorotetrahydropyran-4-yl]-3-[4-[[(2-methoxybenzoyl)amino]methyl]phenyl]pyrazole-4-carboxamide]	0.01 to 0.1	< 0.01	1 to 10		0.1 to 1
COc1ccc(F)cc1C(=O)NCc1ccc(-c2nn(C(C3CCCC3)C(F)(F)F)c(N)c2C(N)=O)cc1 (centres unmarked) [Example 196, 5-Amino-1-(1-cyclopentyl-2,2,2-trifluoro-ethyl)-3-[4-[[(5-fluoro-2-methoxy-benzoyl)amino]methyl]phenyl]pyrazole-4-carboxamide]	0.01 to 0.1	0.01 to 0.1	1 to 10	0.1 to 1	
COc1ccc(F)cc1C(=O)NCc1ccc(-c2nn(C3CCOC3)c(N)c2C(N)=O)c(F)c1 (centres unmarked) [Example 105, 5-amino-3-[2-fluoro-4-[[(5-fluoro-2-methoxy-benzoyl)amino]methyl]phenyl]-1-tetrahydrofuran-3-yl-pyrazole-4-carboxamide]	0.01 to 0.1	< 0.01	1 to 10	0.1 to 1	
COc1ccc(F)cc1C(=O)NCc1ccc(-c2nn(C(C)C(F)(F)F)c(N)c2C(N)=O)c(F)c1 (centres unmarked) [Example 179, 5-amino-3-[2-fluoro-4-[[(5-fluoro-2-methoxy-benzoyl)amino]methyl]phenyl]-1-(2,2,2-trifluoro-1-methyl-ethyl)pyrazole-4-carboxamide]	< 0.01	< 0.01	1 to 10	0.01 to 0.1	
COc1ccc(F)cc1C(=O)NCc1ccc(-c2nn([C@H]3CCOC3)c(N)c2C(N)=O)cc1 [Example 162, 5-amino-3-[4-[[(5-fluoro-2-methoxy-benzoyl)amino]methyl]phenyl]-1-[(3S)-tetrahydrofuran-3-yl]pyrazole-4-carboxamide]	< 0.01	< 0.01	1 to 10	0.01 to 0.1	

The next lines start with the values.

IC50 [1] [µM]	IC50 [2] [µM]	IC50 (Recombinant EGFR) [µM]	IC50 ([3]; Homo sapiens, OCI-Ly10, 72 h) [µM]	IC50 [3] [µM]	Compound
< 0.01	< 0.01	0.1 to 1	0.01 to 0.1		COc1ccccc1C(=O)NCc1ccc(-c2nn(C3CCOC(C)C3)c(N)c2C(N)=O)cc1 (mixture of isomers) [Example 85, 5-amino-3-[4-[[(2-methoxybenzoyl)amino]methyl]phenyl]-1-(2-methyltetrahydropyran-4-yl)pyrazole-4-carboxamide]
< 0.01	< 0.01	> 10	0.01 to 0.1		COc1ccccc1C(=O)NCc1ccc(-c2nn(C3CCCOC3)c(N)c2C(N)=O)c(F)c1F (centres unmarked) [Example 157, 5-amino-3-[2,3-difluoro-4-[[(2-methoxybenzoyl)amino]methyl]phenyl]-1-tetrahydropyran-3-yl-pyrazole-4-carboxamide]
< 0.01	< 0.01	1 to 10	0.01 to 0.1		COc1ccccc1C(=O)NCc1ccc(-c2nn(C3CCCC3)c(N)c2C(N)=O)c(F)c1 [Example 130, 5-amino-1-cyclopentyl-3-[2-fluoro-4-[[(2-methoxybenzoyl)amino]methyl]phenyl]pyrazole-4-carboxamide]
< 0.01	< 0.01	1 to 10		0.01 to 0.1	COc1ccccc1C(=O)NCc1ccc(-c2nn(C3CCOCC3F)c(N)c2C(N)=O)cc1 (single isomer, unassigned) [Example 96, 5-amino-1-[3-fluorotetrahydropyran-4-yl]-3-[4-[[(2-methoxybenzoyl)amino]methyl]phenyl]pyrazole-4-carboxamide]
< 0.01	< 0.01	1 to 10	0.01 to 0.1		COc1ccc(F)cc1C(=O)NCc1ccc(-c2nn(C3CCN(C)CC3(F)F)c(N)c2C(N)=O)cc1 (centres unmarked) [Example 191, 5-amino-1-(3,3-difluoro-1-methyl-4-piperidyl)-3-[4-[[(5-fluoro-2-methoxy-benzoyl)amino]methyl]phenyl]pyrazole-4-carboxamide]
< 0.01	< 0.01	1 to 10	0.01 to 0.1		COc1ccc(F)cc1C(=O)NCc1ccc(-c2nn(C(C)C(F)(F)F)c(N)c2C(N)=O)cc1F (centres unmarked) [Example 177, 5-amino-3-[3-fluoro-4-[[(5-fluoro-2-methoxy-benzoyl)amino]methyl]phenyl]-1-(2,2,2-trifluoro-1-methyl-ethyl)pyrazole-4-carboxamide]
< 0.01	< 0.01	1 to 10	0.1 to 1		COc1ccccc1C(=O)NCc1ccc(-c2nn(CC(F)(F)F)c(N)c2C(N)=O)cc1F [Example 129, 5-amino-3-[3-fluoro-4-[[(2-methoxybenzoyl)amino]methyl]phenyl]-1-(2,2,2-trifluoroethyl)pyrazole-4-carboxamide]
< 0.01	< 0.01	1 to 10	0.01 to 0.1		COc1ccc(F)cc1C(=O)NCc1ccc(-c2nn(C(C)(C)C(F)(F)F)c(N)c2C(N)=O)cc1 [Example 189, 5-amino-3-[4-[[(5-fluoro-2-methoxy-benzoyl)amino]methyl]phenyl]-1-(2,2,2-trifluoro-1,1-dimethyl-ethyl)pyrazole-4-carboxamide]
< 0.01	< 0.01	0.1 to 1	< 0.01	0.01 to 0.1	COc1ccccc1C(=O)NCc1ccc(-c2nn(C3CCCCC3)c(N)c2C(N)=O)cc1 [Example 18, 5-amino-1-cyclohexyl-3-[4-[[(2-methoxybenzoyl)amino]methyl]phenyl]pyrazole-4-carboxamide]

From patent US11826351B2, “Compounds useful as kinase inhibitors” (Loxo Oncology, Inc., priority 2015, dated 2023)
